{
  "source": "paper PMC4408918",
  "about": "(Journal of medicinal chemistry, 2012)",
  "key": {"[1]": {"tested_on": "P. falciparum 3D7", "test": "P. falciparum 3D7 growth inhibition", "assay_type": "cell-based", "conditions": "Plasmodium falciparum, 3D7, 72 h, read-out: 3D7 EC50"}, "[2]": {"tested_on": "P. falciparum K1", "test": "P. falciparum K1 growth inhibition", "assay_type": "cell-based", "conditions": "Plasmodium falciparum, K1, 72 h, read-out: K1 EC50"}, "[3]": {"test": "Liver microsomal stability, human", "assay_type": "in vitro ADME", "conditions": "both, pH 7.4"}, "[4]": {"test": "In vivo pharmacokinetics, oral, female CD-1 mice", "conditions": "for AUC(0-inf) / CL/F: female, CD-1, mouse, po"}, "[5]": {"tested_on": "P. berghei (NK-65)", "test": "Oral efficacy in P. berghei", "conditions": "100 and 200 mg/kg oral on days 3, 4, 5"}, "[6]": {"tested_on": "Kir6.2/SUR2A", "conditions": "read-out: Kir6.2 IC50; cited from earlier work"}, "[7]": {"test": "Parallel Artificial membrane Permeability Assay", "assay_type": "in vitro ADME", "conditions": "triplicate"}, "[8]": {"test": "Liver microsomal stability, mouse", "assay_type": "in vitro ADME", "conditions": "female, CD9, mouse, mouse liver microsomes, pH 7.4"}, "[9]": {"biological_target": "CYP2D6 (Homo sapiens, UniProt P10635)", "sequence (P10635 whole entry)": "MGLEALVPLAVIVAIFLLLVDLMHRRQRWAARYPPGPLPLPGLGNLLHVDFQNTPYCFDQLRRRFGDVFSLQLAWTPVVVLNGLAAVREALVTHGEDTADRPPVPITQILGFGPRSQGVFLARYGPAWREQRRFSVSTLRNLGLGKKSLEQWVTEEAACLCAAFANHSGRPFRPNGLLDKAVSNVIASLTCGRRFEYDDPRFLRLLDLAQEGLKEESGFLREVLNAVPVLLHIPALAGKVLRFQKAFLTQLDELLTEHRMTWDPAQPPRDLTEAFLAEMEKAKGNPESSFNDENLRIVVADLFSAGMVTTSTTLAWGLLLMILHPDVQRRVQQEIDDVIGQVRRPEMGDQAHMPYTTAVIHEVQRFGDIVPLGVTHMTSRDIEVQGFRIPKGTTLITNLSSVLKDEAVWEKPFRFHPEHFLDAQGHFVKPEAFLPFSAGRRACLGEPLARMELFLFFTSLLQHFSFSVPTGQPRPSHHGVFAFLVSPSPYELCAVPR", "test": "CYP inhibition in human liver microsomes, CYP2D6", "assay_type": "in vitro ADME", "conditions": "20 minutes at 37 °C, two concentrations"}, "[10]": {"tested_on": "Nav1.5", "conditions": "cited from earlier work"}, "[11]": {"conditions": "human liver microsomes (pooled)"}},
  "note": "Like-named read-outs stand apart in the source and are kept apart here.",
  "data": [
    {"smiles": "O=C(CCc1ccccc1)c1ccccc1OCC(O)CN1CCN(C(c2ccccc2)c2ccccc2)CC1", "note": "(stereo not shown) [Compound 1]", "values": [
      {"measurement": "EC50", "setting": "[1]", "result": "0.06 ± 0.01", "unit": "µM"},
      {"measurement": "EC50", "setting": "[2]", "result": "0.1 ± 0.05", "unit": "µM"},
      {"measurement": "CLint scaled at 2000 µM", "setting": "[3]; [11]", "result": "14 ± 1", "unit": "mL/min/kg"},
      {"measurement": "AUC(0-inf)", "setting": "[4]; plasma, 20 mg/kg", "result": 0.249, "unit": "µM·h"},
      {"measurement": "CL/F", "setting": "[4]; plasma, 20 mg/kg", "result": 2350, "unit": "mL/min/kg"},
      {"measurement": "AUC(0-inf)", "setting": "[4]; plasma, 200 mg/kg", "result": 3.1, "unit": "µM·h"},
      {"measurement": "CL/F", "setting": "[4]; plasma, 200 mg/kg", "result": 1890, "unit": "mL/min/kg"},
      {"measurement": "AUC(0-inf)", "setting": "[4]; plasma, 500 mg/kg", "result": 3.37, "unit": "µM·h"},
      {"measurement": "CL/F", "setting": "[4]; plasma, 500 mg/kg", "result": 4340, "unit": "mL/min/kg"},
      {"measurement": "overall in vivo efficacy", "setting": "[5]", "result": "not significantly better than that of the negative controls"}
    ]},
    {"smiles": "O=C(CCc1ccccc1)c1cc(F)ccc1OCC(O)CN1CCN(C(c2ccccc2)c2ccccc2)CC1", "note": "(stereo not shown) [Compound 2]", "values": [
      {"measurement": "CLint scaled at 2000 µM", "setting": "[3]; microsomes", "result": "5 ± 2", "unit": "mL/min/kg"},
      {"measurement": "IC50", "setting": "[6]", "result": "> 5", "unit": "µM"},
      {"measurement": "AUC(0-inf)", "setting": "[4]; plasma, 200 mg/kg", "result": 6.17, "unit": "µM·h"},
      {"measurement": "CL/F", "setting": "[4]; plasma, 200 mg/kg", "result": 920, "unit": "mL/min/kg"}
    ]},
    {"smiles": "O=C(CCc1ccc(F)cc1)c1ccccc1OCC(O)CN1CCN(C(c2ccccc2)c2ccccc2)CC1", "note": "(stereo not shown) [Compound 3]", "values": [
      {"measurement": "Avg. Pe (PAMPA permeability)", "setting": "[7]", "result": "und^a"},
      {"measurement": "CLint scaled at 2000 µM", "setting": "[8]", "result": "43 ± 3", "unit": "mL/min/kg"},
      {"measurement": "CLint scaled at 2000 µM", "setting": "[3]; [11]", "result": "13 ± 1", "unit": "mL/min/kg"},
      {"measurement": "AUC(0-inf)", "setting": "[4]; plasma, 20 mg/kg", "result": 0.298, "unit": "µM·h"},
      {"measurement": "CL/F", "setting": "[4]; plasma, 20 mg/kg", "result": 1900, "unit": "mL/min/kg"},
      {"measurement": "AUC(0-inf)", "setting": "[4]; plasma, 200 mg/kg", "result": 5.67, "unit": "µM·h"},
      {"measurement": "CL/F", "setting": "[4]; plasma, 200 mg/kg", "result": 1000, "unit": "mL/min/kg"},
      {"measurement": "AUC(0-inf)", "setting": "[4]; plasma, 500 mg/kg", "result": 4.08, "unit": "µM·h"},
      {"measurement": "CL/F", "setting": "[4]; plasma, 500 mg/kg", "result": 3480, "unit": "mL/min/kg"}
    ]},
    {"smiles": "O=C(CCc1ccccc1)c1ccccc1OCC(O)CN1CCC(c2ccccc2)CC1", "note": "(stereo not shown) [Compound 4]", "values": [
      {"measurement": "CLint scaled at 2000 µM", "setting": "[8]", "result": "27 ± 2", "unit": "mL/min/kg"},
      {"measurement": "CLint scaled at 2000 µM", "setting": "[3]; [11]", "result": "11 ± 1", "unit": "mL/min/kg"},
      {"measurement": "CYP2D6 inhibition", "setting": "[9]", "result": "weak CYP2D6 inhibitors"},
      {"measurement": "IC50", "setting": "[6]", "result": "> 5", "unit": "µM"},
      {"measurement": "IC50", "setting": "[10]; read-out: Nav1.5 phasic IC50, phasic", "result": "> 5", "unit": "µM"},
      {"measurement": "IC50", "setting": "[10]; read-out: Nav1.5 tonic IC50, tonic", "result": "> 5", "unit": "µM"},
      {"measurement": "improvement in AUCinf over compound 1", "setting": "[4]; 500 mg/kg oral, female CD-1 mice", "result": "approximately 5 fold"},
      {"measurement": "AUC(0-inf)", "setting": "[4]; in vivo, 20 mg/kg", "result": 0.224, "unit": "µM·h"},
      {"measurement": "CL/F", "setting": "[4]; in vivo, 20 mg/kg", "result": 3110, "unit": "mL/min/kg"},
      {"measurement": "AUC(0-inf)", "setting": "[4]; in vivo, 200 mg/kg", "result": 6.8, "unit": "µM·h"},
      {"measurement": "CL/F", "setting": "[4]; in vivo, 200 mg/kg", "result": 1020, "unit": "mL/min/kg"},
      {"measurement": "AUC(0-inf)", "setting": "[4]; in vivo, 500 mg/kg", "result": 15.3, "unit": "µM·h"},
      {"measurement": "CL/F", "setting": "[4]; in vivo, 500 mg/kg", "result": 1140, "unit": "mL/min/kg"},
      {"measurement": "overall in vivo efficacy", "setting": "[5]", "result": "some efficacy in suppressing parasitemia and life extension, but did not provide durable cures"}
    ]},
    {"smiles": "O=C(CCc1ccccc1)c1cc(F)ccc1OCC(O)CN1CCC(c2ccccc2)CC1", "note": "(stereo not shown) [Compound 5]", "values": [
      {"measurement": "Avg. Pe (PAMPA permeability)", "setting": "[7]", "result": "und^a"},
      {"measurement": "CLint scaled at 2000 µM", "setting": "[8]", "result": "29 ± 2", "unit": "mL/min/kg"},
      {"measurement": "CLint scaled at 2000 µM", "setting": "[3]; [11]", "result": "19 ± 1", "unit": "mL/min/kg"},
      {"measurement": "CYP2D6 inhibition", "setting": "[9]", "result": "weak CYP2D6 inhibitors"},
      {"measurement": "AUC(0-inf)", "setting": "[4]; plasma, 20 mg/kg", "result": 1.6, "unit": "µM·h"},
      {"measurement": "CL/F", "setting": "[4]; plasma, 20 mg/kg", "result": 421, "unit": "mL/min/kg"},
      {"measurement": "AUC(0-inf)", "setting": "[4]; plasma, 200 mg/kg", "result": 3.75, "unit": "µM·h"},
      {"measurement": "CL/F", "setting": "[4]; plasma, 200 mg/kg", "result": 1790, "unit": "mL/min/kg"},
      {"measurement": "increase in Cmax with increasing dose from 20 mg/kg to 200 mg/kg", "setting": "[4]; oral, female CD-1 mice", "result": 2, "unit": "fold"}
    ]},
    {"smiles": "Cc1ccc(N2CCN(CC(O)COc3ccccc3C(=O)CCc3ccccc3)CC2)cc1", "note": "(stereo not shown) [Compound 6]", "values": [
      {"measurement": "Avg. Pe (PAMPA permeability)", "setting": "[7]", "result": "und^a"},
      {"measurement": "CLint scaled at 2000 µM", "setting": "[8]", "result": "30 ± 6", "unit": "mL/min/kg"},
      {"measurement": "IC50", "setting": "[6]", "result": "> 5", "unit": "µM"},
      {"measurement": "IC50", "setting": "[10]", "result": "> 5", "unit": "µM"},
      {"measurement": "AUC(0-inf)", "setting": "[4]; in vivo, 200 mg/kg", "result": 6.49, "unit": "µM·h"},
      {"measurement": "CL/F", "setting": "[4]; in vivo, 200 mg/kg", "result": 1000, "unit": "mL/min/kg"}
    ]}
  ]
}
